One series is described as follows: in vivo. To be noted: rat, po.
Series [1] is described as follows: Acute toxicity in rabbits. To be noted: rabbit, in vivo, oral.
A short description of the next series: Acute toxicity in rats. To be noted: rat, in vivo, topical or ocular.

For orientation: LD50 means the dose at which mortality reaches 50%. High values mean a less toxic substance, low ones a more toxic substance.

With `S=c1[nH]c2cc(Cl)c(Oc3ccc(Cl)cc3Cl)cc2[nH]1` [Example 1/2, 5-chloro-6-(2',4'-dichlorophenoxy)-2H-1,3-dihydro-benzimidazole-2-thione], the LD50 in the series “in vivo” was 3100 mg/kg; in series [1], over 6000 mg/kg; in the series “Acute toxicity in rats” it was over 3000 mg/kg.

The values are drawn from patent publication US4205077A, “Benzimidazole sulphides as anthelmintic agents” (Ciba-Geigy Corporation, priority 1977, dated 1980).
